Measured values reported in patent US20120252773A1, “Method and composition for inhibiting cell proliferation and angiogenesis” (priority 2005, published 2012).

Tests used:
[1] = test system: PC-3 human prostate tumors; assay: PC-3 xenograft nude mouse model, tumor growth; format: in vivo
Procedure: Compound (2) was evaluated using the xenograft nude Balb-C athymic mouse model for its in vivo anti-tumor activity against PC-3 human prostate tumors. The mice were obtained from Taconic Laboratories. The experiment was conducted by subcutaneously implanting PC-3 cells to the right flanks of BALB-C athymic nude mice (Taconic Laboratories) followed by observing tumor growth daily. There were 8 mice in the control and each treatment groups. When tumor volumes reached 70-100 mm^3, drug delivery was initiated at 3 dose levels of (2). The compound was delivered orally as follows: 0 mg/kg to the control group, 10 mg/kg to one treatment group, and 30 mg/kg to a second treatment group, each once daily for 28 days; and 100 mg/kg to a third treatment group, once weekly. Tumor volumes were measured twice weekly and body weights once weekly.
Mice were treated as in Example 7, except that one group received no oral (2), but instead received 7.5 mg/kg i.p. paclitaxel (Sigma) when the tumors reached 70-100 mm^3, while another group received both (2) orally at 10 mg/kg and paclitaxel i.p. at 7.5 mg/kg.

Stat-3 (pStat-3, Tyr705) = assay: Stat-3 phosphorylation, Western blot, DU-145 cells; format: cell-based, human; conditions: DU-145, 0.5 μM, 48 h
Procedure: Stat-3 is, therefore, an important molecular target for developing anti-cancer agents. DU-145 cells were treated with 0 (control), 100, or 500 nM of (2) for 48 hours. Western blot analysis was performed using total and phospho-Stat-3 (pStat-3, Tyr705) antibodies from Cell Signal Technology, Inc.

[2] = test system: HIF-1α protein in RAW 264.7 immortalized mouse macrophages; assay: HIF-1α protein expression by immunoblotting, RAW 264.7 macrophages; format: cell-based; conditions: RAW 264.7 macrophages (normal cell line)
Procedure: Hypoxia experiments were performed in either of two ways. To produce a very low ambient oxygen concentration (effectively anoxia), we used a protocol in which cells were incubated in a 5% CO2-air atmosphere at 37° C. overnight and then placed in aluminum gas-exchange chambers maintained at 37° C. (Laderoute K R et al. Mol Cell Biol 22: 2515-2523, (2002); Laderoute K R et al. Mol Cell Biol 24: 4128-4137, (2004)). The chambers containing the cells were then placed in a 37° C. circulating water bath and the original atmosphere was repeatedly exchanged with 5% CO2-95% N2 using a manifold equipped with a vacuum pump and a gas cylinder. Atmospheric oxygen partial pressure (pO2) values of less than or equal to 0.01% (relative to air at pO2 of about 21%) can be achieved inside the chambers using this system. […] Atmospheric oxygen levels in both the chambers and the glove box have been measured and calibrated using a polarographic oxygen electrode (Oxygen Sensors, Inc., Norristown, Pa.). […]
We used immunoblotting to evaluate the experiments. […] After spinning at 9,000×g for 5 min at 4° C., the protein concentrations of the supernatants were determined by using a bicinchoninic acid assay (Pierce Biotechnology). […] Primary antibody binding was detected and visualized by using the ECL Plus Western Blotting Detection System (Amersham Pharmacia Biotech) according to the supplier's instructions. […]

C[C@@H]1Cc2cc(O)ccc2C2CCC3(C)/C(=C/COCCN(C)C)CCC3C21 (stereo partly drawn) [Compound (2), (E)-3-Hydroxy-7α-methyl-21-[(2-dimethylamino)ethoxy]-19-norpregna-1,3,5(10),17(20)-tetraene]
tumor growth rate ([1]; 10 mg/kg oral once daily for 28 days): markedly decreased growth rates | reduction of microvascularization compared to control group ([1]; 30 mg/kg oral): about 50% | tumor growth rate ([1]; 30 mg/kg oral once daily for 28 days): markedly decreased growth rates | tumor growth rate ([1]; 100 mg/kg oral once weekly): markedly decreased growth rates | reduction of tyrosine phosphorylation of Stat-3 (Stat-3 (pStat-3, Tyr705)): 52% | HIF-1α protein expression [2]: did not influence
